# Experimental data taken from patent US20050032738A1, “Method of treating cancer by conjunctive therapy with 2'-haloemethylidene derivatives and a S-phase or M-phase specific antineoplastic agent” (Merrell Pharmaceuticals Inc., priority 1992, published 2005).
# Key:
# HeLa cells = experiment: Antiproliferative activity against HeLa cells (MTT cell viability); conditions: for IC50: Homo sapiens, HeLa, 72 h, read-out: Drug Alone IC50
# B16 melanoma = experiment: Antitumor activity against B16 melanoma in mice; type: in vivo; conditions: B16 melanoma s.c. day 0, i.p. once daily, 101,731 5 mg/kg day 1-7, Ara-C 10 mg/kg day 7-14; for % Inhibition (tumor weight): day 15; for Tumor Weight (g) (Mean ± S.D.): tumors weighed day 15
# Excerpt: Inject B16 melanoma cells (1×10^5 cells/mouse) subcutaneously on day 0. Administer compounds i.p. once daily as indicated. Sacrifice the animals on day 15, dissect the tumors and weigh.
# Lewis lung carcinoma = experiment: Antitumor activity against Lewis lung carcinoma in mice (tumor weight, pulmonary metastatic foci); type: in vivo; conditions: i.p. once daily, 101,731 5 mg/kg day 1-7, Ara-C 10 mg/kg day 7-14; for % Inhibition (tumor weight) / Tumor Weight (g) (Mean ± S.D.): 3LL cells s.c. day 0; for % Inhibition (tumor weight) / % Inhibition (No. of foci) / No. of Foci (Mean ± S.D.): day 15; for Tumor Weight (g) (Mean ± S.D.): tumors weighed day 15; for % Inhibition (No. of foci) / No. of Foci (Mean ± S.D.): pulmonary metastatic foci
# Excerpt: Inject 3 LL cells (1×10^5/mouse) s.c. on day 0. Administer compounds i.p., once daily as indicated. Sacrifice animals on day 15, dissect the tumors and weigh. Also count pulmonary metastatic foci.
Structure (SMILES),IC50 (HeLa cells),% Inhibition (tumor weight) (B16 melanoma),Tumor Weight (g) (Mean ± S.D.) (B16 melanoma),% Inhibition (tumor weight) (Lewis lung carcinoma),Tumor Weight (g) (Mean ± S.D.) (Lewis lung carcinoma),% Inhibition (No. of foci) (Lewis lung carcinoma),No. of Foci (Mean ± S.D.) (Lewis lung carcinoma),"Effect on the growth of the tumor cells (HeLa cells; MDL 101,731 alone, 15 ng/mL for 24 hours, HeLa cells)","Drug + 101,731 IC50 (HeLa cells; HeLa cells pretreated with MDL 101,731 15 ng/mL for 24 hours, washed, then drug for 72 hours, MTT)","Drug Alone IC50 (HeLa cells; HeLa cells, 72 hours exposure to drug, MTT)"
"O=c1[nH]cc(F)c(=O)[nH]1 [5-Fluorouracil (5Fu), 5-Fluorouracil]",41.1 µg/mL,–,–,–,–,–,–,–,–,–
"Nc1ccn([C@@H]2O[C@H](CO)[C@@H](O)/C2=C\F)c(=O)n1 [101,731, (E)-2′-deoxy-2′-fluoromethylidenecytidine]",–,10%,2.4 ± 0.9 g,20%,2.8 ± 0.6 g,0%,15.5 ± 6,did not show any effect,–,–
"Nc1ccn([C@@H]2O[C@H](CO)[C@@H](O)[C@@H]2O)c(=O)n1 [Ara-C, Cytosine Arabinoside]",–,0%,3.6 ± 0.8 g,0%,3.83 ± 0.8 g,0%,14.6 ± 5,–,3.2 µg/mL,13.7 µg/mL
"CC[C@]1(O)C[C@@H]2CN(CCc3c([nH]c4ccccc34)[C@@](C(=O)OC)(c3cc4c(cc3OC)N(C)[C@H]3[C@@](O)(C(=O)OC)[C@H](OC(C)=O)[C@]5(CC)C=CCN6CC[C@]43[C@@H]65)C2)C1 [Vinblastine (VLB), Vinblastine]",86.7 µg/mL,–,–,–,–,–,–,–,–,–
